What was measured:
[1] = sodium picrate extraction in CDCl3 monitored by 1H NMR; format: binding
Procedure: FIG. 9 ^1H NMR spectrum (400 MHz, CDCl3, 22° C.) of (A) calixarene octabutylamide (5 mM) in CDCl3, (B) the same compound after addition of 1 equiv. of NaPic. (C) the same compound after addition of 2 equiv. of NaPic.
The secondary amide NH and the core aromatic ring framework, in this case the calix[4]arene framework, are essential for the HCl transport activity of 2. Calix[4]arene octabutylamide 3 was used as a negative control for tetrabutylamide 2, as the lack of amide NH protons in 3 would preclude Cl^− binding. Instead, 3 should be a cation ionophore, much like tetrakis(diethylcarbamoylmethoxy)-p-tert-butylcalix[4]arene-1,3-alt that coordinates cations in the solid-state and solution. To confirm that 3 binds Na^+, sodium picrate extraction in CDCl3 was monitored by ^1H NMR spectroscopy. Complexation of the salt by 3 was evident. Two distinct complexes were formed, corresponding to a 1:1 and a 2:1 Na^+:3 stoichiometry. The 1:1 complex was generated by adding 1 equiv of solid sodium picrate to a solution of 3. Binding this Na^+ led to a symmetry loss for 3, indicated by doubling of the ^1H NMR peaks. […] In contrast, sodium picrate extraction by calix[4]arene tetrabutylamide 2 was not detected by ^1H NMR spectroscopy.

[2] = 1H NMR binding experiment in CDCl3 with n-Bu4-NCl
Procedure: FIG. 7 illustrates a series of […] spectra (400 mHz, CDCl3, 22° C.) of calixarene tetrabutylamide in the presence of different species: (A) the compound alone (5 mm); (B) the compound with 1 equiv. of Bu4 NCl; (C) the compound after washing CDCl3 solution of the compound with an aqueous solution of 0.5 m HCl; (D) after washing CDCl3 solution of the compound with an aqueous solution of 0.5 M H2SO4.
To obtain evidence for Cl^− binding by 2, ^1H NMR experiments were run in CDCl3 using n-Bu4-NCl and HCl as Cl^− sources. Anion receptors usually show chemical shift perturbation upon anion complexation, particularly for amide NH protons that hydrogen bond to the anion. […] Calix[4]arene tetrabutylamide 2 does, however, bind HCl. Thus, shaking a CDCl3 solution of 2 with aqueous HCl led to disappearance of the amide NH proton and a significant upfield shift of the […] protons (FIG. 4c).

[3] = 35Cl NMR transport assay; format: biochemical; settings: vesicles with NaCl and Co2+ inside, Co2+-free Na2SO4 buffer outside; 2 mol %
Procedure: FIG. 2A illustrates ^35Cl NMR spectra of a suspension of giant vesicles (29 mM EYPC, 100 mM NaCl, 10 mM CoCl2, 10 mM NanH3-nPO4, n=1, 2 pH 5.3) suspended in 75 mM […] buffer (NanH3-nPO4, n=1, 2, pH spectra correspond to a) giant vesicles in the absence of 3, b) giant vesicles after application of 2 mol % 3 in DMSO, c) vesicles after lysis with Triton X-100.
Liposome Preparation for ^35Cl NMR Assays. Egg yolk L-α-phosphatidylcholine (1.0 mg/mL EYPC ethanol solution, 250 μL, […]) was dissolved in a CHCl3/MeOH mixture, the solution was evaporated under reduced pressure and the resulting thin film was dried under high vacuum for 2.5 h. The lipid film was hydrated in 1.0 mL of phosphate buffer (9:1 H2O:D2O, 10 mM sodium phosphate, pH=5.4, 100 mM NaCl) containing 10 mM CoCl2 (^35Cl shift reagent) for 40 min. During hydration, the suspension was submitted to 5 freeze-thaw cycles (liquid nitrogen, water at rt). The giant liposome suspension (1 mL) was submitted to high-pressure extrusion at rt (41 passes through a 5.0 μm polycarbonate membrane). […]
^35Cl NMR Measurements. All ^35Cl NMR spectra were recorded on a Bruker DRX500 instrument operating at 49.0023 MHz for the ^35Cl resonance and chemical shift values are reported in ppm relative to 25 mM NaCl in D2O at 0 ppm (external standard). […]

| binding of the naked Cl− anion [2] | SMILES | sodium picrate extraction [1] | outward Cl− transport (35Cl NMR signal) [3] |
| --- | --- | --- | --- |
| does not bind strongly | CCCCNC(=O)COc1c2cccc1Cc1cccc(c1OCC(=O)NCCCC)Cc1cccc(c1OCC(=O)NCCCC)Cc1cccc(c1OCC(=O)NCCCC)C2 [calix[4]arene tetrabutylamide 2, Calix[4]arene tetrabutylamide] | not detected |  |
|  | CCCCNC(=O)COc1ccccc1Cc1cccc(Cc2ccccc2OCC(=O)NCCCC)c1OCC(=O)NCCCC [trimer 3, Tris-(N-butyl-2-phenoxyacetamide)] |  | enhancement of the extravesicular Cl^− peak |

Reference: patent publication US7355074B2, “Compounds having aromatic rings and side-chain amide-functionality and a method for transporting monovalent anions across biological membranes using the same” (The University of Maryland, priority 2003, dated 2008)
